Experimental data taken from patent US20020115727A1, “Synthesis, methods of using, and compositions of hydroxylated cyclobutylalkylamines” (priority 2000, published 2002).
Read-outs that look alike come from different tables or passages of the source.

Columns and labels:
[1] = target: T1, functional uptake of serotonin (5-HT) into synaptosomes prepared from rat whole brain (Rattus norvegicus, UniProt P31652); experiment: Functional uptake of serotonin (5-HT) into synaptosomes; format: biochemical; conditions: for IC50: rat whole brain synaptosomes, 10 concentrations in duplicate; for inhibition at 10 µM: read-out: inhibition of 5-HT uptake (no IC50 determined)
T1 construct: into synaptosomes prepared from rat whole brain, hypothalamus, or corpora striata, respectively; from tissue; host or cells: rat whole brain synaptosomes
Procedure: (§1) The 1-OH metabolites of N-didesmethylsibutramine (1-OH-DDMS) were tested to determine thir ability to functional uptake of serotonin (5-HT), norepinephrine (NE), or dopamine (DA), into synaptosomes prepared from rat whole brain, hypothalamus, or corpora striata, respectively. In addition, binding was determined at the nonselective muscarinic receptor and the β3-receptor from rat cerebral cortex and rat adipose tissue, respectively. The 1-OH-DDMS compounds tested contain two chiral centers (C2, C4): (2R,4R) (2S,4R), (2R,4S), and (2S,4S).
(§2) The 1-OH metabolites of N-desmethylsibutramine (DMS) were also tested to determine their ability to inhibit functional uptake of serotonin (5-HT), norepinephrine (NE), or dopamine (DA), into synaptosomes prepared from rat whole brain, hypothalamus, or corpora striata, respectively. In addition, binding was determined at the nonselective muscarinic receptor and the β3-receptor from rat cerebral cortex and rat adipose tissue, respectively. The 1-OH-DMS compounds tested contained two chiral centers (C2, C4): (2R,4R), (2S,4S), (2R,4S), and (2S,4R).

[2] = target: T2, functional uptake of norepinephrine (NE) into synaptosomes prepared from rat hypothalamus (Rattus norvegicus, UniProt Q63380); experiment: Functional uptake of norepinephrine (NE) into synaptosomes; format: biochemical; conditions: 10 concentrations in duplicate
T2 construct: into synaptosomes prepared from rat whole brain, hypothalamus, or corpora striata, respectively; from tissue; host or cells: rat hypothalamus synaptosomes
Procedure: as §1, §2

[3] = target: T3, functional uptake of dopamine (DA) into synaptosomes prepared from rat corpora striata (Rattus norvegicus, UniProt P23977); experiment: Functional uptake of dopamine (DA) into synaptosomes; format: biochemical; conditions: 10 concentrations in duplicate
T3 construct: into synaptosomes prepared from rat whole brain, hypothalamus, or corpora striata, respectively; from tissue; host or cells: rat corpora striata synaptosomes
Procedure: as §1, §2

[4] = target: T4, β3-receptor from rat adipose tissue (Rattus norvegicus, UniProt P26255); experiment: Binding at the β3-receptor
T4 construct: from tissue; host or cells: rat adipose tissue
Procedure: Indeed, certain compounds have been tested. The 1-OH metabolites of N-didesmethylsibutramine (1-OH-DDMS) were tested to determine thir ability to functional uptake of serotonin (5-HT), norepinephrine (NE), or dopamine (DA), into synaptosomes prepared from rat whole brain, hypothalamus, or corpora striata, respectively. In addition, binding was determined at the nonselective muscarinic receptor and the β3-receptor from rat cerebral cortex and rat adipose tissue, respectively. The 1-OH-DDMS compounds tested contain two chiral centers (C2, C4): (2R,4R) (2S,4R), (2R,4S), and (2S,4S).
as §2

[5] = read-out: IC50 Values (nM) for 1-OH Metabolites of DDMS in Functional Uptake Assays: 5-HT
[6] = read-out: IC50 Values (nM) for 1-OH Metabolites of DDMS in Functional Uptake Assays: NE
[7] = read-out: IC50 Values (nM) for 1-OH Metabolites of DDMS in Functional Uptake Assays: DA
[8] = read-out: IC50 Values (nM) for 1-OH Metabolites of DMS in Functional Uptake Assays: NE
[9] = read-out: IC50 Values (nM) for 1-OH Metabolites of DMS in Functional Uptake Assays: DA
[10] = read-out: IC50 Values (nM) for 1-OH Metabolites of DMS in Functional Uptake Assays: 5-HT

T3 sequence (P23977 whole entry): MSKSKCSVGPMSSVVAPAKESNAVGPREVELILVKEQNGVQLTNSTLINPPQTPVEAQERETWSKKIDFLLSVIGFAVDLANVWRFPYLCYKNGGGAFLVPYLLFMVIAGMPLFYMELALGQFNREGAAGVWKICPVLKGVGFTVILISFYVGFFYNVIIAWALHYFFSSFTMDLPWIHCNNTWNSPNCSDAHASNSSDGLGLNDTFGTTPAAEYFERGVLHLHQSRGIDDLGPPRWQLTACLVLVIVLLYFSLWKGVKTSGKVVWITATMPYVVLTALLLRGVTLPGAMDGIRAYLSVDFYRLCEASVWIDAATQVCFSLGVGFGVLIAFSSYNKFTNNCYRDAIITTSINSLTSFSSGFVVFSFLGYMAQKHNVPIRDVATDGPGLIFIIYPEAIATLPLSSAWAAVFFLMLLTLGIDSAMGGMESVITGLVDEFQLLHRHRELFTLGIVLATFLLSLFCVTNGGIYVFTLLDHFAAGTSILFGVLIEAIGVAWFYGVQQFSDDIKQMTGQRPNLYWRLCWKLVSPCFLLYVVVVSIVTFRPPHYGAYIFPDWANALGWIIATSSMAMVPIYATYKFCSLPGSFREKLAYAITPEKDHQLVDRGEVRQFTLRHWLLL
T1 sequence (P31652 whole entry): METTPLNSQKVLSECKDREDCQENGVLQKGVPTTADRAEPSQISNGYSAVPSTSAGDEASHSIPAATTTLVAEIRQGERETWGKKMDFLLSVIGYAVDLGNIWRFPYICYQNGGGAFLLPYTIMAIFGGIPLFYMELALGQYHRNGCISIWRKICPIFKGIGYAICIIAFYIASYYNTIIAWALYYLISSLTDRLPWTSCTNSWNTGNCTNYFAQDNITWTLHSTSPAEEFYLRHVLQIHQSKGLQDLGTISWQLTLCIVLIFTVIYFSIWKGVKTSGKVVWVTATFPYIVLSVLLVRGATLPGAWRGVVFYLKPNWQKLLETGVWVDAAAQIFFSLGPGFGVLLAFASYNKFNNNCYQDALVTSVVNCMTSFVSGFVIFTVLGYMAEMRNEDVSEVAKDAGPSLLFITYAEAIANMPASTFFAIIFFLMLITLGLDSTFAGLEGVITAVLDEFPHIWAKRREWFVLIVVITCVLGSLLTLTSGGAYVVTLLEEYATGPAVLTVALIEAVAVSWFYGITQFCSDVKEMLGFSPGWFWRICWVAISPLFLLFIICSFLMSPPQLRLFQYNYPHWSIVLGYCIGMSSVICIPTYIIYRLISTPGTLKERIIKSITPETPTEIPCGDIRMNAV
T2 sequence (Q63380 1-617): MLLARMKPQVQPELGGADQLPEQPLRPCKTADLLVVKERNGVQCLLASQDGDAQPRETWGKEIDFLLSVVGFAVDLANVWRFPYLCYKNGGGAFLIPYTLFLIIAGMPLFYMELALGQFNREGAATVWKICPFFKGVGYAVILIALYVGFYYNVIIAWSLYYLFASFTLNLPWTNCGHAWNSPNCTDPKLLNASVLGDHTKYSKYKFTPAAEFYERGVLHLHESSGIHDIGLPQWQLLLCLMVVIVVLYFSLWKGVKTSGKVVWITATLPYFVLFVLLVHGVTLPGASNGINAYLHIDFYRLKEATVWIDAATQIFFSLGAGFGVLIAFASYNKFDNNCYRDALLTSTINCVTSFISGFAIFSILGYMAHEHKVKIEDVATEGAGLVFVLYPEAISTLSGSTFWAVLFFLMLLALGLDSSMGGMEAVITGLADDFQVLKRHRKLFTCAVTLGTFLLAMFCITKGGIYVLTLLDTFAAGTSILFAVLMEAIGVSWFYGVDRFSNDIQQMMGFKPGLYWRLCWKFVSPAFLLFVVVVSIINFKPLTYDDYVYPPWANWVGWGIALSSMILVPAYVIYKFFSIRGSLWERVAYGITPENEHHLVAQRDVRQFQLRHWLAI
T4 sequence (P26255 whole entry): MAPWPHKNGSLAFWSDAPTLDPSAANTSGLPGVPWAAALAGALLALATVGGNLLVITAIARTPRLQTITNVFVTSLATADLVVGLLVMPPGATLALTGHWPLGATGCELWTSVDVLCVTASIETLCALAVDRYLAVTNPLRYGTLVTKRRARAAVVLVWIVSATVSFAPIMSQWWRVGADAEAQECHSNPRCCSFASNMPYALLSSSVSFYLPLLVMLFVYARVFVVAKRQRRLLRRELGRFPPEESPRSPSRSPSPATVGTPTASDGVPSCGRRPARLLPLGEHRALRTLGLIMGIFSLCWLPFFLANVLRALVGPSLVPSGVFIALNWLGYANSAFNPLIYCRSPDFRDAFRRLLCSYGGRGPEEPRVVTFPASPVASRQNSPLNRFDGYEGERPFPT

Row | SMILES | IC50 [1, 5] | IC50 [2, 6] | IC50 [3, 7] | inhibition at 10 µM [1] | IC50 [2, 8] | IC50 [3, 9] | IC50 [1, 10] | inhibition at 10 µM ([4]; read-out: inhibition at the β3-receptor (1-OH-DMS compounds)) | inhibition at 10 µM ([4]; read-out: inhibition at the β3-receptor (1-OH-DDMS compounds))
1 | C[C@H](CO)C[C@@H](N)C1(c2ccc(Cl)cc2)CCC1 [(2S,4R)-1-OH-DDMS, (2S,4R)-4-Amino-4-[1-(4-chlorophenyl)cyclobutyl]-2-methyl-butan-1-ol] | 65 nM | 11 nM | 37 nM |  |  |  |  |  | 
2 | C[C@@H](CO)C[C@@H](N)C1(c2ccc(Cl)cc2)CCC1 [(2R,4R)-1-OH-DDMS, (2R, 4R)-4-Amino-4-[1-(4-chlorophenyl)cyclobutyl]-2-methyl-butan-1-ol] | 34 nM | 4.7 nM | 27 nM |  |  |  |  |  | 
3 | CN[C@@H](C[C@@H](C)CO)C1(c2ccc(Cl)cc2)CCC1 [(2R,4S)-1-OH-DMS, (2R, 4S)-4-Methylamino-4-[1-(4-chlorophenyl)cyclobutyl]-2-methyl-butan-1-ol] |  |  |  | < 50% | 74 nM | 2500 nM |  |  | 
4 | CN[C@H](C[C@H](C)CO)C1(c2ccc(Cl)cc2)CCC1 [(2S,4R)-1-OH-DMS, (2S, 4R)-4-Methylamino-4-[1-(4-chlorophenyl)cyclobutyl]-2-methyl-butan-1-ol] |  |  |  |  | 9.3 nM | 37 nM | 160 nM | 24% | 
5 | C[C@H](CO)C[C@H](N)C1(c2ccc(Cl)cc2)CCC1 [(2S,4S)-1-OH-DDMS, (2S, 4S)-4-Amino-4-[1-(4-chlorophenyl)cyclobutyl]-2-methyl-butan-1-ol] | 1200 nM | 150 nM | 33 nM |  |  |  |  |  | 30%
6 | CN[C@H](C[C@@H](C)CO)C1(c2ccc(Cl)cc2)CCC1 [(2R,4R)-1-OH-DMS] |  |  |  |  | 2.2 nM | 19 nM | 12 nM |  | 
7 | C[C@@H](CO)C[C@H](N)C1(c2ccc(Cl)cc2)CCC1 [(2R,4S)-1-OH-DDMS, (2R, 4S)-4-Amino-4-[1-(4-chlorophenyl)cyclobutyl]-2-methyl-butan-1-ol] | 2000 nM | 71 nM | 110 nM |  |  |  |  |  | 
8 | CN[C@@H](C[C@H](C)CO)C1(c2ccc(Cl)cc2)CCC1 [(2S,4S)-1-OH-DMS, (2S, 4S)-4-Methylamino-4-[1-(4-chlorophenyl)cyclobutyl]-2-methyl-butan-1-ol] |  |  |  | < 50% | 250 nM | 430 nM |  |  | 
